Test results: US20040023884A1, “Biologically active peptides from functional domains of bactericidal/permeability-increasing protein and uses thereof” (priority 1993, published 2004)
Values after ≈ are worked out from the molar mass of the structure shown. Square brackets hold non-standard residues; d marks the D form. Ends that are not written are not given here. Peptide text beside a SMILES is read from it. Phe(4-NH2) = Nc1ccc(C[C@H](N)C(=O)O)cc1; 1Nal = N[C@@H](Cc1cccc2ccccc12)C(=O)O

Experiments:
RAW 264.7 cells = assay: LPS neutralization cellular proliferation assay, RAW 264.7 cells; assay type: cell-based, mouse
Description: In this assay, mouse RAW 264.7 cells (ATCC Accession No. T1B71), maintained in RPMI 1640 media (GIBCO), supplemented with 10 mM HEPES buffer (pH 7.4), 2 mM L-glutamine, penicillin (100U/mL), streptomcin (100 μg/mL), 0.075% sodium bicarbonate, […] 2-mercaptoethanol and 10% fetal bovine serum (Hyclone, Inc., Logan, Utah), were first induced by incubation in the presence of 50U/mL recombinant mouse y-interferon (Genzyme, Cambridge, Mass.) for 24 h prior to assay. Induced cells were then mechanically collected and centrifuged at 500×g at 4° C. and then resuspended in 50 mL RPMI 1640 media (without supplements), re-centrifuged and again resuspended in RPMI 1640 media (without supplements). The cells were counted and their concentration adjusted to 2×10^5 cells/mL and 100 μL aliquots were added to each well of a 96-well microtitre plate. The cells were then incubated for about 15 hours with E. coli O113 LPS (Control Standard. Assoc. of Cape Cod. Woods Hole, Mass.), which was added in 100 μL/well aliquots at a concentration of […] in serum-free RPMI 1640 media (this concentration being the result of titration experiments in which LPS concentration was varied between 50 pg/mL and 100 ng/mL). This incubation was performed in the absence or presence of BPI functional domain peptides in varying concentrations between 25 ng/mL and 50 μg/mL. Recombinant human BPI was used as a positive control at a concentration of 1 μg/mL. Cell proliferation was quantitatively measured by the addition of 1 μCi/well [^3H]-thymidine 5 hours after the time of initiation of the assay. After the 15-hour incubation, labeled cells were harvested onto glass fiber filters with a cell harvester (Inotech Biosystems, EQ-384, Sample Processing and Filter Counting System, Lansing, Mich.).

Candida albicans = assay type: cell-based
[1] = test system: rough mutant E. coli J5 bacteria; assay: Radial diffusion bactericidal assay, E. coli J5; assay type: cell-based; settings: for pmol added to well to achieve a 30 mm^2 bactericidal zone, E. coli J5: PROBIT analysis, E. coli J5 (rough)
In short: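 Log-phase bacteria (3 h at 37 °C in tryptic soy broth), washed in 10 mM sodium phosphate pH 7.4, were embedded at 4×10^6 CFU/mL in underlayer agarose. BPI proteolytic fragments (5 or 10 μL) went into 3 mm wells for 3 h at 37 °C, then agarose overlay and overnight 37 °C growth. Clear zones were measured by micrometer.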

[2] = test system: E. coli 0111:B4 (smooth) bacteria; assay: Radial diffusion bactericidal assay, E. coli 0111:B4; assay type: cell-based; settings: radial diffusion; PROBIT analysis; E. coli O111:B4 (smooth)
Staphylococcus aureus = assay: Radial diffusion bactericidal assay, Staphylococcus aureus; assay type: cell-based; settings: radial diffusion; PROBIT analysis; S. aureus
C. albicans = assay: Radial diffusion fungicidal assay, Candida albicans; assay type: cell-based; settings: for C. albicans: pmol required for 30 mm^2 zone: radial diffusion
[3] = 3H-heparin binding assay (affinity and capacity); settings: for Heparin Capacity: heparin bound at saturation; for Kd: read-out: Heparin Affinity
In short: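 Bound 3H-heparin was counted by liquid scintillation after 1 h incubation at 4 °C with fragments immobilised on PVDF-bottomed wells, then washing in blocking buffer. Signal was corrected for BSA-related background, and varying amounts of rBPI23 were used as positive control.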

Molecule	EC50 (peptide concentration at which the growth inhibitory effect of LPS was reversed by 50%) (RAW 264.7 cells)	IC50 (peptide concentration at which RAW cell growth was inhibited by 50%) (RAW 264.7 cells)	MIC C. alb (Candida albicans) [µg/mL]	pmol added to well to achieve a 30 mm^2 bactericidal zone, E. coli J5 ([1]; radial diffusion)	pmol added to well to achieve a 30 mm^2 bactericidal zone, E. coli O111:B4 [2]	pmol added to well to achieve a 30 mm^2 bactericidal zone, S. aureus (Staphylococcus aureus)	C. albicans: pmol required for 30 mm^2 zone (C. albicans) [pmol]	Heparin Capacity [3] [ng]	Kd [3] [nM]	fold decrease in the radial diffusion assay test (fungicidal activity) (C. albicans; vs BPI.13)	bactericidal activity (in words) ([1]; radial diffusion, E. coli J5)	heparin binding capacity (in words) [3]	activity of position 95 substitution variants (in words) ([1]; activity not further specified)
CC(C)C[C@H](NC(=O)[C@H](Cc1ccccc1)NC(=O)[C@H](CCCNC(=N)N)NC(=O)[C@H](Cc1cccc2ccccc12)NC(=O)[C@H](Cc1cccc2ccccc12)NC(=O)[C@H](C)NC(=O)[C@H](CCCCN)NC(=O)[C@H](Cc1c[nH]c2ccccc12)NC(=O)[C@H](CCCCN)NC(=O)[C@H](CCCCN)NC(=O)[C@H](CC(C)C)NC(=O)[C@H](Cc1ccccc1)NC(=O)[C@H](CCCNC(=N)N)NC(=O)[C@H](Cc1cccc2ccccc12)NC(=O)[C@H](Cc1cccc2ccccc12)NC(=O)[C@H](C)NC(=O)[C@H](CCCCN)NC(=O)[C@H](Cc1c[nH]c2ccccc12)NC(=O)[C@H](CCCCN)NC(=O)[C@H](CCCCN)NC(=O)[C@H](CC(C)C)NC(=O)[C@H](Cc1ccccc1)NC(=O)[C@H](CCCNC(=N)N)NC(=O)[C@H](Cc1cccc2ccccc12)NC(=O)[C@H](Cc1cccc2ccccc12)NC(=O)[C@H](C)NC(=O)[C@H](CCCCN)NC(=O)[C@H](Cc1c[nH]c2ccccc12)NC(=O)[C@@H](N)CCCCN)C(=O)N[C@@H](CCCCN)C(=O)O [BPI.157] (H-KWKA[1Nal][1Nal]RFLKKWKA[1Nal][1Nal]RFLKKWKA[1Nal][1Nal]RFLK-OH; N-terminus and C-terminus assumed)	comparable to BPI.29	lower IC5	>100.00										
CC[C@H](C)[C@H](NC(=O)[C@H](CC(C)C)NC(=O)[C@H](Cc1c[nH]c2ccccc12)NC(=O)[C@H](Cc1ccc(N)cc1)NC(=O)[C@@H](NC(=O)[C@H](CCCCN)NC(=O)[C@H](CO)NC(=O)[C@@H](N)CCCCN)C(C)C)C(=O)N[C@@H](CCC(N)=O)C(=O)N[C@@H](CC(C)C)C(=O)N[C@@H](Cc1ccccc1)C(=O)N[C@@H](Cc1c[nH]cn1)C(=O)N[C@@H](CCCCN)C(=O)N[C@@H](CCCCN)C(=O)O [BPI.134] (H-KSKV[Phe(4-NH2)]WLIQLFHKK-OH; N-terminus and C-terminus assumed)			12.50 (≈ 6.88 µM)	162.50 pmol	580.11 pmol	b (no detectable activity up to 5 μg/well)	1254.98						
KSKVGWLIALFHKK [BPI.39]			12.50	316.20 pmol	b (no detectable activity up to 5 μg/well)		1791.81	335.6	757	greater than 8 fold			
KWAFAKKQKKRLKRQWLKKF [BPI.150]				220.00 pmol	3,610.00 pmol	b (no detectable activity up to 5 μg/well)	>2380.67						
KSKVLWLIQLFHKK [BPI.85]				227.35 pmol	295,208.43 pmol	14,677.13 pmol	>1881.18	233.1	682				
CC[C@H](C)[C@H](N)C(=O)N[C@@H](CCCCN)C(=O)N[C@H](C(=O)N[C@@H](CO)C(=O)NCC(=O)N[C@@H](CCCCN)C(=O)N[C@@H](Cc1c[nH]c2ccccc12)C(=O)N[C@@H](CCCCN)C(=O)N[C@@H](C)C(=O)N[C@@H](CCC(N)=O)C(=O)N[C@@H](CCCCN)C(=O)N[C@@H](CCCNC(=N)N)C(=O)N[C@@H](Cc1ccccc1)C(=O)N[C@@H](CC(C)C)C(=O)N[C@@H](CCCCN)C(=O)NCCCC[C@H](NC(=O)[C@H](CCCCN)NC(=O)[C@H](CC(C)C)NC(=O)[C@H](Cc1ccccc1)NC(=O)[C@H](CCCNC(=N)N)NC(=O)[C@H](CCCCN)NC(=O)[C@H](CCC(N)=O)NC(=O)[C@H](C)NC(=O)[C@H](CCCCN)NC(=O)[C@H](Cc1c[nH]c2ccccc12)NC(=O)[C@H](CCCCN)NC(=O)CNC(=O)[C@H](CO)NC(=O)[C@@H](NC(=O)[C@H](CCCCN)NC(=O)[C@@H](N)[C@@H](C)CC)[C@@H](C)CC)C(=O)NCCCC[C@H](NC(=O)[C@H](CCCCNC(=O)[C@H](CCCCN)NC(=O)[C@H](CC(C)C)NC(=O)[C@H](Cc1ccccc1)NC(=O)[C@H](CCCNC(=N)N)NC(=O)[C@H](CCCCN)NC(=O)[C@H](CCC(N)=O)NC(=O)[C@H](C)NC(=O)[C@H](CCCCN)NC(=O)[C@H](Cc1c[nH]c2ccccc12)NC(=O)[C@H](CCCCN)NC(=O)CNC(=O)[C@H](CO)NC(=O)[C@@H](NC(=O)[C@H](CCCCN)NC(=O)[C@@H](N)[C@@H](C)CC)[C@@H](C)CC)NC(=O)[C@H](CCCCN)NC(=O)[C@H](CC(C)C)NC(=O)[C@H](Cc1ccccc1)NC(=O)[C@H](CCCNC(=N)N)NC(=O)[C@H](CCCCN)NC(=O)[C@H](CCC(N)=O)NC(=O)[C@H](C)NC(=O)[C@H](CCCCN)NC(=O)[C@H](Cc1c[nH]c2ccccc12)NC(=O)[C@H](CCCCN)NC(=O)CNC(=O)[C@H](CO)NC(=O)[C@@H](NC(=O)[C@H](CCCCN)NC(=O)[C@@H](N)[C@@H](C)CC)[C@@H](C)CC)C(=O)NCCC(=O)O)[C@@H](C)CC [MAP.1, β-alanyl-Nα,Nε-substituted-{Nα,Nε(BPI.2)lysyl}lysine]	0.45 ± 0.1 µg/mL			105.71 pmol	552.79 pmol	1,382.60 pmol		459.1	937		highly bactericidal	extremely high heparin capacity	
KWKAAARFLKKSKVGWLIQLFHKK [BPI.145]				250.00 pmol	9,561.00 pmol	b (no detectable activity up to 5 μg/well)	>1886.58						
IKISGKWKAQFDRFLK [BPI.76]	>50 µg/mL	— (No proliferation decrease up to 50 μg/ml)		10,519.55 pmol	b (no detectable activity up to 5 μg/well)	b (no detectable activity up to 5 μg/well)		144.4	128				dramatically reduced activity, to levels lower than the original peptide (BPI.2)
KSKVGWLIQLFFKK [BPI.94]				922.54 pmol	3,658.80 pmol	9,446.60 pmol	>922.54	216.1	407				
CKSKVGWLIQLFHKKC [BPI.137]				1,390.00 pmol	87,980.00 pmol	b (no detectable activity up to 5 μg/well)	>2285.73						
KSKVGWLIQLFLKK [BPI.87]				188.72 pmol	23,949.00 pmol	868,991.70 pmol	>1535.78	280.0	575				
KSKVFWLIQLFHKK [BPI.95]				330.88 pmol	2,809.70 pmol	b (no detectable activity up to 5 μg/well)	>1397.64	224.5	551				
